Laboratory results reported in ChEMBL document CHEMBL4251578, “Design, synthesis and biological evaluation of novel 2-aminobenzamides containing dithiocarbamate moiety as histone deacetylase inhibitors and potent antitumor agents” (Eur J Med Chem, 2018).
Activity calls are given as the source filed them. The calls are words filed in the database; no cut-off is given here.

Tests used:
MGC-803 [1] = assay: Antiproliferative activity against human MGC803 cells at 2 uM after 72 hrs by CCK-8 assay relative to control; assay type: functional; settings: MGC-803, 72 h
MGC-803 [2] = assay: Antiproliferative activity against human MGC803 cells at 8 uM after 72 hrs by CCK-8 assay relative to control; assay type: functional; settings: MGC-803, 72 h
A-375 [3] = assay: Antiproliferative activity against human A375 cells at 2 uM after 72 hrs by CCK-8 assay relative to control; assay type: functional; settings: A-375, 72 h
A-375 [4] = assay: Antiproliferative activity against human A375 cells at 8 uM after 72 hrs by CCK-8 assay relative to control; assay type: functional; settings: A-375, 72 h
HeLa [5] = assay: Antiproliferative activity against human HeLa cells at 2 uM after 72 hrs by CCK-8 assay relative to control; assay type: functional
HeLa [6] = assay: Antiproliferative activity against human HeLa cells at 8 uM after 72 hrs by CCK-8 assay relative to control; assay type: functional
A-375 [7] = assay: Antiproliferative activity against human A375 cells after 72 hrs by CCK-8 assay; assay type: functional, cell-based; settings: A-375, 72 h
HeLa [8] = assay: Antiproliferative activity against human HeLa cells after 72 hrs by CCK-8 assay; assay type: functional, cell-based
SMMC-7721 [9] = assay: Antiproliferative activity against human SMMC7721 cells after 72 hrs by CCK-8 assay; assay type: functional, cell-based; settings: SMMC-7721, 72 h
NCI-H1299 = assay: Antiproliferative activity against human NCI-H1299 cells after 72 hrs by CCK-8 assay; assay type: functional, cell-based; settings: NCI-H1299, 72 h
Histone deacetylase 2 = Histone deacetylase 2 (Homo sapiens, UniProt Q92769); assay: Inhibition of human recombinant HDAC2 using Fluor de Lys-Green as substrate preincubated for 5 mins followed by substrate addition and measured after 1 hr by fluorescence assay
SMMC-7721 [10] = assay: Inhibition of colony formation in human SMMC7721 cells after 7 days by crystal violet staining-based assay; assay type: functional, cell-based
SMMC-7721 [11] = assay: Induction of apoptosis in human SMMC7721 cells assessed as viable cells at 0.125 umol/L after 72 hrs by Alexa Fluor 488 Annexin/propidium iodide staining-based flow cytometric analysis (reference value: 97.14%); assay type: functional; settings: SMMC-7721, 72 h, read-out: Activity
SMMC-7721 [12] = assay: Induction of apoptosis in human SMMC7721 cells assessed as early apoptotic cells at 0.125 umol/L after 72 hrs by Alexa Fluor 488 Annexin/propidium iodide staining-based flow cytometric analysis (reference value: 0.09%); assay type: functional
SMMC-7721 [13] = assay: Induction of apoptosis in human SMMC7721 cells assessed as late apoptotic cells at 0.125 umol/L after 72 hrs by Alexa Fluor 488 Annexin/propidium iodide staining-based flow cytometric analysis (reference value: 0.29%); assay type: functional
SMMC-7721 [14] = assay: Induction of apoptosis in human SMMC7721 cells assessed as necrotic cells at 0.125 umol/L after 72 hrs by Alexa Fluor 488 Annexin/propidium iodide staining-based flow cytometric analysis (reference value: 2.48%); assay type: functional
SMMC-7721 [15] = assay: Induction of apoptosis in human SMMC7721 cells assessed as viable cells at 1 umol/L after 72 hrs by Alexa Fluor 488 Annexin/propidium iodide staining-based flow cytometric analysis (reference value: 97.14%); assay type: functional; settings: SMMC-7721, 72 h, read-out: Activity
SMMC-7721 [16] = assay: Induction of apoptosis in human SMMC7721 cells assessed as early apoptotic cells at 1 umol/L after 72 hrs by Alexa Fluor 488 Annexin/propidium iodide staining-based flow cytometric analysis (reference value: 0.09%); assay type: functional
SMMC-7721 [17] = assay: Induction of apoptosis in human SMMC7721 cells assessed as late apoptotic cells at 1 umol/L after 72 hrs by Alexa Fluor 488 Annexin/propidium iodide staining-based flow cytometric analysis (reference value: 0.29%); assay type: functional
SMMC-7721 [18] = assay: Induction of apoptosis in human SMMC7721 cells assessed as necrotic cells at 1 umol/L after 72 hrs by Alexa Fluor 488 Annexin/propidium iodide staining-based flow cytometric analysis (reference value: 2.48%); assay type: functional
SMMC-7721 [19] = assay: Induction of apoptosis in human SMMC7721 cells assessed as viable cells at 4 umol/L after 72 hrs by Alexa Fluor 488 Annexin/propidium iodide staining-based flow cytometric analysis (reference value: 97.14%); assay type: functional; settings: SMMC-7721, 72 h, read-out: Activity
SMMC-7721 [20] = assay: Induction of apoptosis in human SMMC7721 cells assessed as early apoptotic cells at 4 umol/L after 72 hrs by Alexa Fluor 488 Annexin/propidium iodide staining-based flow cytometric analysis (reference value: 0.09%); assay type: functional
SMMC-7721 [21] = assay: Induction of apoptosis in human SMMC7721 cells assessed as late apoptotic cells at 4 umol/L after 72 hrs by Alexa Fluor 488 Annexin/propidium iodide staining-based flow cytometric analysis (reference value: 0.29%); assay type: functional
SMMC-7721 [22] = assay: Induction of apoptosis in human SMMC7721 cells assessed as necrotic cells at 4 umol/L after 72 hrs by Alexa Fluor 488 Annexin/propidium iodide staining-based flow cytometric analysis (reference value: 2.48%); assay type: functional
SMMC-7721 [23] = assay: Cell cycle arrest in human SMMC7721 cells assessed as accumulation of cells at S phase at 0.125 umol/L after 72 hrs by propidium iodide staining-based flow cytometric analysis (reference value: 5.21%); assay type: functional
SMMC-7721 [24] = assay: Cell cycle arrest in human SMMC7721 cells assessed as accumulation of cells at G2/M phase at 0.125 umol/L after 72 hrs by propidium iodide staining-based flow cytometric analysis (reference value: 14.14%); assay type: functional
SMMC-7721 [25] = assay: Cell cycle arrest in human SMMC7721 cells assessed as accumulation of cells at G0/G1 phase at 1 umol/L after 72 hrs by propidium iodide staining-based flow cytometric analysis (reference value: 80.65%); assay type: functional
SMMC-7721 [26] = assay: Cell cycle arrest in human SMMC7721 cells assessed as accumulation of cells at S phase at 1 umol/L after 72 hrs by propidium iodide staining-based flow cytometric analysis (reference value: 5.21%); assay type: functional
SMMC-7721 [27] = assay: Cell cycle arrest in human SMMC7721 cells assessed as accumulation of cells at G2/M phase at 1 umol/L after 72 hrs by propidium iodide staining-based flow cytometric analysis (reference value: 14.14%); assay type: functional
SMMC-7721 [28] = assay: Cell cycle arrest in human SMMC7721 cells assessed as accumulation of cells at G0/G1 phase at 4 umol/L after 72 hrs by propidium iodide staining-based flow cytometric analysis (reference value: 80.65%); assay type: functional
SMMC-7721 [29] = assay: Cell cycle arrest in human SMMC7721 cells assessed as accumulation of cells at S phase at 4 umol/L after 72 hrs by propidium iodide staining-based flow cytometric analysis (reference value: 5.21%); assay type: functional
SMMC-7721 [30] = assay: Cell cycle arrest in human SMMC7721 cells assessed as accumulation of cells at G2/M phase at 4 umol/L after 72 hrs by propidium iodide staining-based flow cytometric analysis (reference value: 14.14%); assay type: functional
MGC-803 [31] = assay: Antiproliferative activity against human MGC803 cells after 72 hrs by CCK-8 assay; assay type: functional, cell-based; settings: MGC-803, 72 h
HCT-116 = assay: Antiproliferative activity against human HCT116 cells after 72 hrs by CCK-8 assay; assay type: functional, cell-based; settings: HCT-116, 72 h

Sequence of Histone deacetylase 2 (Q92769 whole entry): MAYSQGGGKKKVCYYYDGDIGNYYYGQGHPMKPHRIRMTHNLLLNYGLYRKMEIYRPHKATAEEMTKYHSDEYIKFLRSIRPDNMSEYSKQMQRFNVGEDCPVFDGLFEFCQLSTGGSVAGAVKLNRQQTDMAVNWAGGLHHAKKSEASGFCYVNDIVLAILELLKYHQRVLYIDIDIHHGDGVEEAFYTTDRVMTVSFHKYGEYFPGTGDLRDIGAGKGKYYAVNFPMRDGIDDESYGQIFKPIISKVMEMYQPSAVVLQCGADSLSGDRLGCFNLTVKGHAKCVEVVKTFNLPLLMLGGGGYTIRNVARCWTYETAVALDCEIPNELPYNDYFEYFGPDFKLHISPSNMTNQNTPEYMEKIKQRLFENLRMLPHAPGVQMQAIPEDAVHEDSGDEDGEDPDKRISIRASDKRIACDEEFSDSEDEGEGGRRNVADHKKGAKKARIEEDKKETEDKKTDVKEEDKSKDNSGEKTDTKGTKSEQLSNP

Row | SMILES | inhibition at 2 µM (MGC-803 [1]) [%] | inhibition at 8 µM (MGC-803 [2]) [%] | inhibition at 2 µM (A-375 [3]) [%] | inhibition at 8 µM (A-375 [4]) [%] | inhibition at 2 µM (HeLa [5]) [%] | inhibition at 8 µM (HeLa [6]) [%] | IC50 (A-375 [7]) [µM] | IC50 (HeLa [8]) [µM] | IC50 (SMMC-7721 [9]) [µM] | IC50 (NCI-H1299) [µM] | viability at 0.125 µM (SMMC-7721 [11]) [%] | Activity (SMMC-7721 [12]) [%] | Activity (SMMC-7721 [13]) [%] | Activity (SMMC-7721 [14]) [%] | viability at 1 µM (SMMC-7721 [15]) [%] | Activity (SMMC-7721 [16]) [%] | Activity (SMMC-7721 [17]) [%] | Activity (SMMC-7721 [18]) [%] | viability at 4 µM (SMMC-7721 [19]) [%] | Activity (SMMC-7721 [20]) [%] | also measured
1 | Nc1ccc(F)cc1NC(=O)c1ccc(CNC(=O)/C=C/c2cccnc2)cc1 | 7.8 | 54.5 | 21.3 | 54.3 | 14.7 | 41.4 | 7.67 | 11.8 | > 26 | 16.3 | 78.3 | 6.02 | 11.62 | 4.08 | 73.9 | 4.59 | 10.22 | 11.25 | 74.2 | 5.45 | IC50 (Histone deacetylase 2): 0.37 µM; inhibition (SMMC-7721 [10]): Active; Activity (SMMC-7721 [21]): 17.32%; Activity (SMMC-7721 [22]): 3.06%; Activity (SMMC-7721 [23]): 5.71%; Activity (SMMC-7721 [24]): 17.2%; Activity (SMMC-7721 [25]): 76.07%; Activity (SMMC-7721 [26]): 5.26%; Activity (SMMC-7721 [27]): 18.67%; Activity (SMMC-7721 [28]): 76.41%; Activity (SMMC-7721 [29]): 5.54%; Activity (SMMC-7721 [30]): 18.05%
2 | Nc1ccccc1NC(=O)c1ccc(CNC(=O)OCc2cccnc2)cc1 [ENTINOSTAT] | 25.3 | 67.2 | 30.2 | 88.7 | 62.2 | 76.6 | 3.67 | 1.6 | 5.97 | 6.74 | 77.5 | 4.56 | 8.41 | 9.56 | 73.9 | 11.21 | 9.64 | 5.22 | 57.3 | 20.06 | IC50 (MGC-803 [31]): 4.89 µM; IC50 (HCT-116): 0.47 µM; Activity (SMMC-7721 [21]): 15.13%; Activity (SMMC-7721 [22]): 7.47%; Activity (SMMC-7721 [23]): 4.54%; Activity (SMMC-7721 [24]): 17.36%; Activity (SMMC-7721 [25]): 79.1%; Activity (SMMC-7721 [26]): 5.35%; Activity (SMMC-7721 [27]): 15.55%; Activity (SMMC-7721 [28]): 71.21%; Activity (SMMC-7721 [29]): 7.55%; Activity (SMMC-7721 [30]): 21.24%
3 | Nc1ccccc1NC(=O)c1ccc(CSC(=S)N2CCN(c3ccccc3)CC2)cc1 | 42.3 | 87.4 | 27.5 | 88.6 | 62.2 | 73.1 | 3.67 | 0.84 | 2.86 | 0.61 |  |  |  |  |  |  |  |  |  |  | IC50 (MGC-803 [31]): 2.14 µM; IC50 (HCT-116): 2.33 µM
